# Measurements from the NIST ThermoML archive (doi:10.1021/je9002515).
# Numbers after ± are expanded uncertainties.
# Key:
# [1] = 101 kPa, Liquid, Alternating current cell with electrodes
# [2] = xn = mol fraction of the nth substance listed; details: 101 kPa, Liquid, Alternating current cell with electrodes, x2 = 0
electrical conductivity ([1]; 303.15 K) [S/m],electrical conductivity ([1]; 313.15 K) [S/m],electrical conductivity ([1]; 323.15 K) [S/m],electrical conductivity ([1]; 333.15 K) [S/m],electrical conductivity ([1]; 343.15 K) [S/m],electrical conductivity ([1]; 353.15 K) [S/m],electrical conductivity ([1]; 363.15 K) [S/m],electrical conductivity ([1]; 373.15 K) [S/m],electrical conductivity ([1]; 383.15 K) [S/m],electrical conductivity ([1]; 393.15 K) [S/m],electrical conductivity ([2]; 303.15 K) [S/m],electrical conductivity ([2]; 313.15 K) [S/m],electrical conductivity ([2]; 323.15 K) [S/m],electrical conductivity ([2]; 333.15 K) [S/m],electrical conductivity ([2]; 343.15 K) [S/m],electrical conductivity ([2]; 353.15 K) [S/m],electrical conductivity ([2]; 363.15 K) [S/m],electrical conductivity ([2]; 373.15 K) [S/m],electrical conductivity ([2]; 383.15 K) [S/m],electrical conductivity ([2]; 393.15 K) [S/m],Compound
0.0149 ± 0.0024,0.0195 ± 0.0031,0.024 ± 0.0038,0.0307 ± 0.0049,0.04 ± 0.0064,0.0462 ± 0.0074,0.0508 ± 0.0081,0.0534 ± 0.0086,0.0544 ± 0.0087,0.0518 ± 0.0083,,,,,,,,,,,"CC(=O)N(C)C [N,N-dimethylethanamide]"
,,,,,,,,,,0.0149 ± 0.0024,0.0195 ± 0.0031,0.024 ± 0.0038,0.0307 ± 0.0049,0.04 ± 0.0064,0.0462 ± 0.0074,0.0508 ± 0.0081,0.0534 ± 0.0086,0.0544 ± 0.0087,0.0518 ± 0.0083,"CC(=O)N(C)C [N,N-dimethylethanamide] + CNC(C)=O"
0.0324 ± 0.0052,0.0447 ± 0.0072,0.0614 ± 0.0098,0.0775 ± 0.012,0.105 ± 0.017,0.129 ± 0.021,0.165 ± 0.026,0.192 ± 0.031,0.219 ± 0.035,0.247 ± 0.04,,,,,,,,,,,CNC(C)=O [N-methylacetamide]
